Target: T1, Angiotensin II (A II) receptor (Oryctolagus cuniculus, UniProt P34976)
T1 sequence (P34976 1-359): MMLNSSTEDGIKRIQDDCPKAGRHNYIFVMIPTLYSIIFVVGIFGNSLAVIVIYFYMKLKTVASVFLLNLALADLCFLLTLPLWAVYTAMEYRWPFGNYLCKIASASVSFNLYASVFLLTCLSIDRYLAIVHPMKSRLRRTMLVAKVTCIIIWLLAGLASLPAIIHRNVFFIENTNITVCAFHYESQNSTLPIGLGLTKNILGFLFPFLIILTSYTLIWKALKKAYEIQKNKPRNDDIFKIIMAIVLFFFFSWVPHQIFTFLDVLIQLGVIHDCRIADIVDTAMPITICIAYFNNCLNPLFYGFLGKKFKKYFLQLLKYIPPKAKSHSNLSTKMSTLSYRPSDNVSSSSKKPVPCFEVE
Assay: Receptor Binding Assay Using Rabbit Aortae Membrane Preparation (displacement of 125I-Sar1Ile8-angiotensin II)
Method: This assay is also referred to herein as the "IC50 " assay.
Receptor Binding Assay Using Rabbit Aortae Membrane Preparation
Three frozen rabbit aortae (obtained from Pel-Freeze Biologicals) were suspended in 5 mM Tris-0.25M Sucrose, pH 7.4 buffer (50 ml) homogenized, and then centifuged. The mixture was filtered through a cheesecloth and the supernatant was centrifuged for 30 minutes at 20,000 rpm at 4° C. The pellet thus obtained was resuspended in 30 ml of 50 mM Tris-5 mM MgCl2 buffer containing 0.2% Bovine Serum Albumin and 0.2 mg/ml Bacitration and the suspension was used for 100 assay tubes. Samples tested for screening were done in duplicate. To the membrane preparation (0.25 ml) there was added ^125 I-Sar^1 Ile^8 -angiotensin II [obtained from New England Nuclear] (10 ul; 20,000 cpm) with or without the test sample and the mixture was incubated at 37° C. for 90 minutes. The mixture was then diluted with ice-cold 50 mM Tris---0.9% NaCl, pH 7.4 (4 ml) and filtered through a glass fiber filter (GF/B Whatman 2.4" diameter). The filter was soaked in scintillation cocktail (10 ml) and counted for radioactivity using Packard 2260 Tricarb liquid scintillation counter. […]

A II antagonist activity by the IC50 assay (in words) | SMILES
exhibit A II antagonist activity | CCc1nc2c(C)cc(CO)nc2n1Cc1ccc(-c2ccccc2-c2nnn[nH]2)cc1 [compound (I)]
exhibit A II antagonist activity | CCc1nc2c(CO)cc(C)nc2n1Cc1ccc(-c2ccccc2-c2nnn[nH]2)cc1 [compound (II)]

— US5194379A, “Microbial transformation process for the preparation of hydroxylanol imidazo (4,5-b) pyridines useful as angiotensin II receptor antagonists” (Merck & Co., Inc., priority 1991, dated 1993)
